Test results from article PMC10386886, “First-in-class multifunctional TYMS nonclassical antifolate inhibitor with potent in vivo activity that prolongs survival” (JCI Insight, 2023).

How the values were obtained:
in vivo [1] = conditions: FVB/129/Sv, mouse, ip
Protocol: Animals received 4 treatment cycles and were then monitored once off treatment until survival endpoint.
Maximum tolerated dose (MTD)
(§3) experiment) or 5, 10, 25 or 50 mg/kg of 5-FU daily during 5 consecutive days. After 3 treatment cycles,
(§4) animals rested (no treatment) for one more week before euthanasia. Body weight and physical status
(§5) of all mice were closely monitored. Tissues were collected and fixed in alcoholic formalin to test for
(§6) daily during 5 consecutive days for 3 weeks. After 3 treatment cycles, animals rested (no treatment) for
(§7) one more week before euthanasia. Body weight and physical status of all mice were closely monitored.
(§8) Tissues were collected and fixed in alcoholic formalin to test for toxicity.
(§9) Specimens were fixed in alcoholic formalin for 48h and then transferred to 70% ethanol, processed and
(§10) embedded in paraffin. Tissues were serially sectioned and stained by conventional H&E. Slides were

CM cells = assay: MTS viability assay, CM; format: cell-based; conditions: 72-hour drug incubation, Figure 1C
PANC-1 cells = assay: MTS viability assay, PANC-1; format: cell-based; conditions: Homo sapiens, 72-hour drug incubation, Figure 1C
MIA PaCa-2 cells = assay: MTS viability assay, MIA PaCa-2; format: cell-based; conditions: Homo sapiens, 72-hour drug incubation, Figure 1C
Protocol: (§1) Cells were harvested after 72 hours, and cell pellets were stored at –80°C. […] After 72 hours, cell viability was assessed by reduction of MTS using Cell Titer 96 R Aqueous One Solution Cell Proliferation Assay Kit (Promega, catalog G8081), following manufacturer’s recommendations. […] was measured on a SpectraMax M3 (Molecular Devices). Data were plotted in GraphPad Prism 9 to determine GI50 concentration. Chemical synthesis details, including characterization of each compound, can be found in the Supplemental section associated with this publication.

[2] = tested on: H1048 small cell lung cancer cell line; assay: Viability assay, H1048; format: cell-based; conditions: Homo sapiens, NCI-H1048; Supplemental Figure 1B
Protocol: H1048, Colo320, H630 and CCD18Co cells were purchased from ATCC. Cells were grown in RPMI
1640 supplemented with 5 U/ml Penicillin/Streptomycin and 10% fetal bovine serum at a constant
temperature of 37 °C in a humidified atmosphere of 5% carbon dioxide and were routinely tested for
mycoplasma contamination.
For GI50 determination, 3000 Colo320, H630 and CCD18Co cells per well were plated in 96 well plates
hours, cell viability was assessed by reduction of MTT (3-(4,5- dimethylthiazol-2-yl)-2,5-diphenyltetrazolium bromide) using MTT Reagent (Invitrogen, Cat # M6494), following manufacturer’s
recommendations. Chemiluminescent output (integration time 1000 ms) was measured on a
SpectraMax M3 (Molecular Devices). Data was plotted in GraphPad Prism 9 to determine GI50

BON cells = assay: MTS viability assay, BON; format: cell-based; conditions: 72-hour drug incubation, Figure 1C
TYMS [3] = assay: TYMS levels in Luc-PANC-1 xenograft tumors (immunoblot); format: in vivo, mouse; conditions: 25 mg/kg daily IP, 5 consecutive days
Excerpt: (§2) In the subcutaneous tumor model, the resulting Luc-PANC-1 xenograft tumors were monitored by direct tumor measurements and bioluminescence photon flux that is proportional to tumor size. […] Treatment was initiated 30 days after Luc-PANC-1 cell line subcutaneous injections (5 × 10^6 cells), when tumors reached 100 mm^3 in volume, generating a bioluminescence photon flux of 3 × 10^9 to 4 × 10^9 photons/s. […] Tumors from both treatment groups were excised, and the tumor mass was weighed (Figure 2E).
A small piece of frozen tumor (stored at -80 °C) in RIPA buffer with phosphatase and proteinase inhibitors (Santa Cruz, sc-24948) was homogenized using Omni general laboratory homogenizer (GLH). Tumor was then centrifuged for 20 min at 12000 rpm and 4 °C to obtain whole -cell lysates that was transferred to a new tube. Protein concentration was measured using Bradford Assay and 20 µg of total protein lysate was loaded as described in Methods.
Tritium based TYMS catalytic activity assay
The catalytic activity of TYMS was determined by measuring the release of [3H] from [5-3H]dUMP (ViTrax, Cat # VT122) resulting from the conversion of dUMP to dTMP as previously described (2, 3).
The reaction conditions were optimized to determine the amount of TYMS protein needed to establish […]

[4] = tested on: Luc-PANC-1 xenograft tumors; assay: Luc-PANC-1 subcutaneous xenograft tumor model; format: in vivo; conditions: 19-S vs 5-FU comparison, Supplemental Figure 6
Excerpt: as §2
Luc-PANC-1 (5 × 10^6) and Luc-CM (0.5 × 10^6) cells were resuspended in 200 μL of PBS and injected subcutaneously or IP, respectively, into 6- to 8-week-old NSG mice. Tumor-bearing mice were imaged using Xenogen IVIS Lumina Bioluminescence Imaging System (PerkinElmer) every week after cell injection. […] For all animals, body weight was recorded weekly, and Luc-PANC-1 tumor volume was measured weekly with a caliper. For scheduled sacrifice experiments, animals were euthanized after 4 weeks of treatment. […] Tumor volume was calculated as volume = 0.52(length × width^2).
Prior to bioluminescence imaging the region where tumors were located was shaved. […] Following the injection of the D-luciferin substrate mice, were imaged using the Xenogen IVIS Lumina Bioluminescence Imaging System (PerkinElmer). The peak of luciferase photon flux was recorded 6 minutes after injection of the D-luciferin substrate. The total photon flux was analyzed and restricted to tumor region of interest using Living Image v2.60.1 software (Imaging Systems).

[5] = tested on: 5-FU-resistant PANC-1 cells; assay: Clonability assay in 5-FU-resistant PANC-1 cells; format: cell-based; conditions: 8.35 μM 19-S or 6.5 μM 5-FU, 21 days
Protocol: 500 PANC- 1 cells resistant to 6.5 µM 5-FU cells were seeded in 6 well plates by triplicate in media
After 21 days, cells were washed with PBS, fixed with Methanol for 20 minutes and stained with
1% Crystal violet (in PBS) for 20 minutes. After extensive washing, plates were let dry and colonies
were counted and plotted in GraphPad Prism 9. Images were taken using scanner Epson Perfection

TYMS [6] = assay: Immunoblot of TYMS levels in treated PANC-1 cells; format: cell-based; conditions: PANC-1, 72 hours, Figure 1D
Protocol: as §1
A total of 20 μg of total protein lysate was loaded per lane of 10% Tris Glycine Gel (Invitrogen, catalog EC6076). SDS-PAGE was run at 150 V for 1.5 to 2 hours. Proteins were transferred to nitrocellulose membranes using iBlot (Invitrogen, catalog IB3011002). Membranes were blocked with 5% nonfat dry milk (Lab Scientific, catalog M0841) in Tris-buffered saline supplemented with Tween 20 (0.1%) (TBS-T) for 45–60 minutes at room temperature (RT). […] Signal was detected using West Pico Plus chemiluminescence substrate (Thermo Fisher Scientific, catalog 34580) following manufacturer’s recommendations. […] For protein-level quantification relative to loading control, densitometric analysis was performed by ImageJ software (NIH).

[7] = tested on: PANC-1 and MIA PaCa-2 cells; assay: Cell count assay for acquired resistance; format: cell-based; conditions: constant 10 μM
Protocol: 500000 PANC-1 and MiaPaCa- 2 cells were plated in 75 cm2 flasks in DMEM high glucose
supplemented with 5 U/ml Penicillin/Streptomycin and 10% fetal bovine serum. Cells were treated with
Once a week for 7 weeks, cells were trypsinized with Trypsin-
EDTA 0.05% (Gibco) and counted using Cellometer Auto T4 (Nexcelom Bioscience). 500000 cells were
re-seeded in a new 75 cm2 flask in the appropriate treatment. Data was plotted in GraphPad Prism 9.

in vivo [8] = conditions: NSG, mouse, ip
Protocol: Maximum tolerated dose (MTD)
as §3, §4, §5, §6, §7, §8, §9, §10

Work on O=c1[nH]cc(F)c(=O)[nH]1 [Compound 5-FU, 5-fluorouracil] yielded an MTD at 3 treatment cycles (5 consecutive days of daily dosing each) (in vivo [1]) of 25 mg/kg, a GI50 (CM cells) of 14.8 µM and a GI50 (PANC-1 cells) of 15.7 µM. For the same compound, the GI50 (MIA PaCa-2 cells) was 20.4 µM, the GI50 [2] was 3.63 µM and the GI50 (BON cells) was 7.47 µM. For the same compound, the IC50 (BON cells) was 7.1 µM, the “TYMS protein level in tumors” value (TYMS [3]) was “higher than TYMS protein level in vehicle-treated controls” and the “Tumor volume compared with control mice” value [4] was “significant reduction in tumor volume”. The Colony formation [5] was “colonies were observed”, the “TYMS protein expression after treatment” value (TYMS [6]) was 3 fold and the “Effect on cell counts after 1 week” value [7] was “potent cytotoxic effect”. For the same compound, the “Viable cells after 4 weeks of treatment” value [7] was “remained detectible” and the MTD at 3 treatment cycles (5 consecutive days of daily dosing each) (in vivo [8]) was 25 mg/kg.
